The values below come from patent US9790407B2, “Aqueous detergent soluble coating and adhesive and methods of temporary bonding for manufacturing” (priority 2013, dated 2017).

Data set [1] can be described thus: Water solubility of carboxylic acid coatings (Example 1). To be noted: acidic coating; materials dissolved in n,n-dimethylacetamide (DMAC).
Method: (§1) Water solubility is tested and thermal resistance is indicated for each material.
A short description of data set [2]: Detergency solubility of carboxylic acid coatings in KOH based system (Example 1). The format is physicochemical. To be noted: acidic coating, materials dissolved in DMAC.
Method: as §1

Take `O=C(O)/C=C/C(=O)O` [Fumaric Acid]: the “Water solubility (observed)” value in data set [1] is “Limited/no”. For the same molecule, the “Detergency (KOH based system)” value in data set [2] is “Partial”.

Consider `O=C(O)c1cccc(C(=O)O)c1` [Isophthalic acid], for which the “Water solubility (observed)” value in data set [1] was “Limited/no”. Further, in data set [2], the “Detergency (KOH based system)” value is reported as “Yes”.

Consider `O=C(O)c1ccc(O)cc1` [P-hydroxybenzoic acid], for which the “Water solubility (observed)” value in data set [1] is given as “Limited/no”. The “Detergency (KOH based system)” value in data set [2] is given as “Yes”.

For `O=C(O)c1ccccc1C(=O)O` [Phthalic Acid], the “Detergency (KOH based system)” value in data set [2] is “Yes”.

`O=C(O)c1ccc(C(=O)O)cc1` [Terephthalic acid]: the “Detergency (KOH based system)” value in data set [2] was “Partial”.
